# Results as given in patent publication US9775844B2, “Heterocyclic compounds and uses thereof” (Infinity Pharmaceuticals, Inc., priority 2014, dated 2017).
# Key:
# [1] = tested on: RANKL driven differentiation of osteoclasts from bone marrow macrophages; assay: Osteoclast differentiation assay (TRAP staining); type: cell-based, mouse; conditions: FIG. 17
# Description: Bone Marrow Derived Macrophages as Osteoclast Progenitors: Long bones from young C57B6 mice were harvested and bone marrow was extruded by gentle lavage of the bone marrow cavities with a 28 gage needle. The cells were screened, and red blood cells were removed using red blood cell lysis buffer (Sigma). Bone marrow cells were differentiated to macrophages using 20 ng/ml mouse MCSF (RnD systems) for 3 days (RPMI and 20% FCS). The cell were washed with PBS, and lifted with Accutase for 10 minutes.
# Osteoclast Differentiation Assay: The bone marrow macrophage cells were plated at 150,000 cells per well in a 96 well plate in a MEM 10% FCS. […] Then 25 ng/ml mouse MCSF with or without mouse RANKL (100 ng/ml, RnD systems) was added for 6 days. Media changes (including drugs) were done at day 3 and day 5. The cells were then fixed and stained with the tartrate resistant acid phosphatase (TRAP) assay kit from Sigma according to the manufactures instructions. TRAP positive cells (osteoclasts and cells undergoing an osteoclastic differentiation) in a transect of the triplicate wells (at 20× […]) were manually counted by going through the widest part of each well.
# LLC tumor = LLC tumor brei model; type: in vivo
smiles,measurement,setting,value
C[C@H](NC(=O)c1c(N)nn2cccnc12)c1cc2cccc(C#Cc3cnn(C)c3)c2c(=O)n1-c1ccccc1 [Compound BB],RANKL driven differentiation of osteoclasts (TRAP positive cells),[1],prevents RANKL driven differentiation of osteoclasts
same,CD206+M2 polarized suppressive macrophages,LLC tumor,reduces
same,TAMs,LLC tumor,decreased
